This is an account of results in US10233415B1, “Microfluidics cell culture device” (The Regents of the University of California, priority 2013, dated 2019).

Where two headings read alike, the source gives them in different places.

In assay [1] the test system is hiPSC-CM derived cardiac tissue (WTC CMs) in the cardiac MPS. Kind of assay: Cardiac MPS beat rate (motion tracking) drug response. Conditions: for effect on beats per minute (BPM): dose response. The class given is cell-based, human. From the text: A cardiac MPS that incorporates an in vitro 3D model of the human myocardium consisting of aligned CMs derived from hiPS cells was designed, fabricated and characterized with various in and ex situ monitoring tools. […] To characterize the functionality of the cardiac model, a motion tracking method capable of massive parallelization and high throughput analysis based on bright field microscopy as well as a custom made MEA enabling electrophysiological measurements inside the MPS was developed.
As an alternative to MEAs, a computational motion tracking method capable of performing high throughput analysis was developed. The computational motion tracking method analyzed the beating motion of cardiac tissue based on simple bright field movies (FIGS. 6A-C).
Drugs from classes that target a different physiological effect (i.e. ion channel, stimulant) were chosen, and the IC50 or EC50 values were determined.

A further assay deals with adult human slice. Conditions: adult human slice contractility; read-out: EC50 for the effect on adult human slice contractility; cited from earlier work.
For assay [2], the system named is LQT3 hiPSC-CM derived cardiac tissue in the MPS. The assay can be described thus: LQT3 cardiac tissue in the MPS, beat frequency response. The class given is cell-based, human. The protocol:
When fed continuously the tissue remained viable and functional for more than one month. Healthy and LQTS hiPSC-CM-derived cardiac tissue in the MPS were viable and amenable to continuous monitoring (e.g., MEA) and sampling for over 4 weeks. Beating tissues were created and loaded from multiple iPS cell lines, a disease cell line (LQT3), and the GCaMP6 isogenic reporter cell line.
FIG. 7. […] (B) Time dependent effect of 1 μM Isoproterenol (ISO) on bpm. * p<0.05 vs baseline.

Take `Cc1cccc(CCN2CCC(C(=O)c3ccc(NS(C)(=O)=O)cc3)CC2)n1` [E-4031]: the IC50 in assay [1] (cardiac MPS, beat rate, read-out: IC50, dose dependent decrease of beat rate / beats per minute) came out at 392 nM.

For the compound `CC(C)NCC(O)c1ccc(O)c(O)c1` (stereo not drawn) [Isoproterenol], the EC50 in the assay with adult human slice is 100 to 200 nM; in assay [1] (Homo sapiens, cardiac MPS, beat rate, read-out: EC50, concentration dependent increase on absolute beating (beats per minute)), 315 nM. Besides, in assay [1] (cardiac MPS), the “effect on beats per minute (BPM)” value was “dose-dependent increase”. For the same compound, the beat rate result in assay [1] (subsequent exposure to 1 μM, same device, after at least 48 hours wash) is “increased the beat rate”. In addition, the beat frequency result is “no effect” in assay [2] (100 nM concentration) and “approximately doubled” in assay [2] (10 min exposure to 1 μM).

As for `COCCc1ccc(OCC(O)CNC(C)C)cc1` (stereo not drawn) [Metoprolol], the IC50 in assay [1] (Homo sapiens, cardiac MPS, beat rate, read-out: IC50, dose dependent decrease of beat rate) stood at 244000 nM.

Consider `COc1ccc(CCN(C)CCCC(C#N)(c2ccc(OC)c(OC)c2)C(C)C)cc1OC` (stereo not drawn) [Verapamil], for which the IC50 in assay [1] (Homo sapiens, read-out: IC50, dose dependent decrease of beat rate / beats per minute) stood at 950 nM. Moreover, the spontaneous beating entry in assay [1] (at high doses) is recorded as “abolished spontaneous beating”. In addition, the “effect on beats per minute (BPM)” value in assay [1] (cardiac MPS) is recorded as “dose-dependent decrease”. The beat rate entry in assay [1] (exposure to 1 nM, multiple exposures on the same device) is “decreased the beat rate”.
